{"source": "patent US9707267B2", "about": "“Beta-turn peptidomimetic cyclic compounds for treating dry eye” (Mimetogen Pharmaceuticals, Inc., priority 2008, dated 2017)", "key": {"[1]": {"test_system": "Scopolamine Induced Rat Dry Eye Model", "assay": "Scopolamine induced rat dry eye model, corneal staining (Example 5)", "format": "in vivo", "conditions": "for Corneal Staining: score 0 to 4, ± SD", "protocol": "Dry eye was induced using scopolamine hydrobromide (Sigma-Aldrich, St. Louis, Mo.), which was continuously and systemically delivered to the animals via an osmotic pump (2ML4 Alzet®; CedarLane, Burlington, Ontario) filled with scopolamine and implanted subcutaneously in the mid dorsal area between the scapulae. Scopolamine was delivered for a twenty-eight day period at 12.5 mg/day, which translated to 30.0±1.5 mg/kg via osmotic pump.\nTreatments for G2-G6 continued daily for seventeen days (up to an including day twenty-one). Thereafter, treatments were terminated but the study continued for another week. During treatment, each animal was anesthetized in an isoflurane chamber. Once asleep, each animal received a 5 μL topical instillation of test article into the lower conjunctival sac of both eyes using a calibrated micropipette. If a clinical endpoint was also being tested, the test article was topically instilled at the end of the testing.\nImmediately following TBUT assessment, the clinical signs of corneal dryness were evaluated by fluorescein staining of the cornea and was tested on day 13 (after 8 daily treatments), day 21 (after 16 daily treatments), and day 28 (after treatment was stopped for 7 days). A drop of a 0.2% sodium fluorescein solution made up in sterile saline was instilled in the upper conjunctival sac of the anaesthetized animal. The cornea was thereafter observed under blue light using a Portable Slit Lamp ophthalmoscope with blue cobalt filter (Reichert Ophthalmic Instruments, Depew, N.Y.) two to three minutes after fluorescein instillation. For each animal, the punctate fluorescein-stained area of the cornea was recorded in a masked fashion. The score of this test was graded from 0 to 4, where 0 is equal to no staining, 1 is less than 25% surface staining, 2 is 25-50% surface staining, 3 is 50-75% surface staining, and 4 is greater than 75% surface staining."}, "[2]": {"test_system": "cultured rat conjunctival goblet cells", "assay": "Goblet cell glycoconjugate secretion, ELLA with UEA-1 (Example 2)", "format": "cell-based", "conditions": "2 hours; for Glycoconjugate Secretion, Mean ± sem: mean of rats; for Glycoconjugate Secretion, Mean ± SD: mean of rats/plates", "protocol": "The culturing of conjunctival goblet cells from explant cultures was as previously described in Shatos, M. et al., “Isolation, Characterization, and Propagation of Rat Conjunctival Goblet Cells In Vitro,” IOVS 42:1455-1464 (2001), the entire content of which is incorporated herein by reference. The tissue was finely minced and individual pieces were anchored onto scored 6-well cultures dishes in 0.5 mL of complete RPMI-1640 (supplemented with 10% FBS, 2 mM glutamine and 100 μg/mL penicillin-streptomycin) and incubated at 37° C. in a humidified 5% CO2-atmosphere. Explant cultures were refed every 2 days. Within a few days, goblet cells migrated from the pieces and began to proliferate. After approximately one week, the tissue plugs were removed and the goblet cells were allowed to grow to confluence. Cells were passaged once by trypsinization of adherent cells with 0.05% trypsin-0.53 mM EDTA (pH 7.4), and plated in 8-well Laboratory Tek chamber slides (histochemistry) or in 96 well (proliferation), 24 well (secretion), or 6 well (western blots) culture plates with complete RPMI-1640 media.\nTo measure cell secretion, goblet cells were grown to confluence and then serum depleted for 2 hours prior to stimulation. Cells were incubated with compound D3 at 2, 10, and 50 μM, NGF at 0.1, 1 and 10 nM, and PMA at 0.1, 1, and 10 nM in serum-free RPMI for 2 hours. Goblet cell secretion was measured using an enzyme-linked lectin assay (ELLA). Briefly, an aliquot of the cell culture supernatant was transferred to a 96-well polystyrene microtiter plate in triplicate (Corning Life Sciences #2592, Fisher Scientific, Nepean, Ont). A dilution series of bovine submaxillary mucin (BSM) (Sigma, St. Louis, Mo.) was included on each plate as the standard (standard curve data and data showing that detection of BSM is linear between 0.003 and 0.1 μg not shown). The plates were coated by evaporation at 37° C. overnight. After, the plates were washed three times with wash buffer [PBS containing 0.3% BSA, 0.05% Tween-20] then blocked for nonspecific binding with PBS containing 3% BSA and 0.05% Tween-20 at 37° C. for 1 hour. The wells were rinsed three times in wash buffer, and then incubated in 2 μg/mL biotinylated UEA-1 diluted in wash buffer (Vector Labs, Burlingame, Calif.) at 37° C. for 1 hour. The wells were rinsed three times in wash buffer, and then incubated in 1 μg/mL HRP-conjugated neutravidin diluted in wash buffer (Pierce, Rockford, Ill.) at 37° C. for 1 hour. After the wells were rinsed three times in wash buffer, the color development was performed with TMB (Promega, Madison, Wis.) and stopped with 0.5N Sulfuric acid. The absorbance was read at 450 nm on a Benchmark Plus (Biorad). The goblet cells remaining in the culture wells were either scraped in RIPA buffer [1% TritonX-100, 20 mM Tris-HCl pH 7.5, 150 mM NaCl, 1.5 mM MgCl2, 1% Na deoxycholate, 1 mM EGTA, 1 mM EDTA, 0.1% SDS, 10% glycerol, 1 mM Na vanadate, 10 mM Na fluoride, 10 mM Na pyrophosphate, complete mini EDTA-free protease inhibitors (Roche Applied Science, Indianapolis, Ind.)] or 1M Tris-buffer (pH 7.5), collected and sonicated. The amount of protein in the cell homogenate was analyzed using the Bradford protein assay kit using a dilution series of bovine serum albumin (BSA) as the standard (BioRad, Montreal, PQ). Glycoconjugate secretion was normalized to total protein in the homogenate. Data was then expressed as fold increase above basal. […]"}}, "data": [{"smiles": "NCCCC[C@@H]1NC(=O)[C@H](CCC(=O)O)NC(=O)c2cc([N+](=O)[O-])ccc2OCCC(C(=O)NCC(=O)O)NC1=O", "note": "(stereo partly shown) [Compound D3]", "values": [{"measurement": "Corneal Staining", "setting": "[1]; 0.4% topical 1× daily Days 5-21, Day 13", "result": "2.7 ± 0.4", "unit": "Score"}, {"measurement": "Corneal Staining", "setting": "[1]; 0.4% topical 1× daily Days 5-21, Day 21", "result": "2.1 ± 0.4", "unit": "Score"}, {"measurement": "Corneal Staining", "setting": "[1]; 0.4% topical 1× daily Days 5-21, Day 28 (7 days after treatment stopped)", "result": "2.4 ± 0.7", "unit": "Score"}, {"measurement": "changes in corneal staining at Day 28 as compared to Day 13 (in words)", "setting": "[1]; 1% dose vs untreated and saline control groups", "result": "statistically significantly improved corneal staining"}, {"measurement": "Corneal Staining", "setting": "[1]; 1.0% topical 1× daily Days 5-21, Day 13", "result": "2.8 ± 0.6", "unit": "Score"}, {"measurement": "Corneal Staining", "setting": "[1]; 1.0% topical 1× daily Days 5-21, Day 21", "result": "2.3 ± 0.6", "unit": "Score"}, {"measurement": "Corneal Staining", "setting": "[1]; 1.0% topical 1× daily Days 5-21, Day 28 (7 days after treatment stopped)", "result": "1.3±0.3", "unit": "Score"}, {"measurement": "Corneal Staining", "setting": "[1]; 2.5% topical 1× daily Days 5-21, Day 13", "result": "2.1 ± 0.7", "unit": "Score"}, {"measurement": "Corneal Staining", "setting": "[1]; 2.5% topical 1× daily Days 5-21, Day 21", "result": "2.1 ± 1.0", "unit": "Score"}, {"measurement": "Corneal Staining", "setting": "[1]; 2.5% topical 1× daily Days 5-21, Day 28 (7 days after treatment stopped)", "result": "2.6 ± 0.4", "unit": "Score"}, {"measurement": "Glycoconjugate Secretion", "setting": "[2]; 2 μM, Rat 2", "result": 1.25, "unit": "Fold increase above basal"}, {"measurement": "Glycoconjugate Secretion", "setting": "[2]; 2 μM, Rat 2 Plate 1", "result": "2.5 μg glycoconjugate/mg total protein"}, {"measurement": "Glycoconjugate Secretion", "setting": "[2]; 2 μM, Rat 3", "result": 2.14, "unit": "Fold increase above basal"}, {"measurement": "Glycoconjugate Secretion", "setting": "[2]; 2 μM, Rat 3 Plate 1", "result": "10.5 μg glycoconjugate/mg total protein"}, {"measurement": "Glycoconjugate Secretion", "setting": "[2]; 2 μM, Rat 4", "result": 1.09, "unit": "Fold increase above basal"}, {"measurement": "Glycoconjugate Secretion", "setting": "[2]; 2 μM, Rat 4 Plate 1", "result": "9.3 μg glycoconjugate/mg total protein"}, {"measurement": "Glycoconjugate Secretion, Mean ± sem", "setting": "[2]; 2 μM", "result": "1.49±0.33", "unit": "Fold increase above basal"}, {"measurement": "Glycoconjugate Secretion, Mean ± SD", "setting": "[2]; 2 μM", "result": "7.4 ± 4.3 μg glycoconjugate/mg total protein"}, {"measurement": "Glycoconjugate Secretion, Mean ± sem", "setting": "[2]; 2 μM, listed as MIM-D3", "result": "1.49 ± 0.33", "unit": "Fold increase above basal"}, {"measurement": "Glycoconjugate Secretion", "setting": "[2]; 10 μM, Rat 2", "result": 1.25, "unit": "Fold increase above basal"}, {"measurement": "Glycoconjugate Secretion", "setting": "[2]; 10 μM, Rat 2 Plate 1", "result": "2.5 μg glycoconjugate/mg total protein"}, {"measurement": "Glycoconjugate Secretion", "setting": "[2]; 10 μM, Rat 3", "result": 1.04, "unit": "Fold increase above basal"}, {"measurement": "Glycoconjugate Secretion", "setting": "[2]; 10 μM, Rat 3 Plate 1", "result": "5.1 μg glycoconjugate/mg total protein"}, {"measurement": "Glycoconjugate Secretion", "setting": "[2]; 10 μM, Rat 4", "result": 1.35, "unit": "Fold increase above basal"}, {"measurement": "Glycoconjugate Secretion", "setting": "[2]; 10 μM, Rat 4 Plate 1", "result": "11.6 μg glycoconjugate/mg total protein"}, {"measurement": "Glycoconjugate Secretion, Mean ± sem", "setting": "[2]; 10 μM", "result": "1.21 ± 0.09", "unit": "Fold increase above basal"}, {"measurement": "Glycoconjugate Secretion, Mean ± SD", "setting": "[2]; 10 μM", "result": "6.4 ± 4.7 μg glycoconjugate/mg total protein"}, {"measurement": "Glycoconjugate Secretion", "setting": "[2]; 50 μM, Rat 1", "result": 1.38, "unit": "Fold increase above basal"}, {"measurement": "Glycoconjugate Secretion", "setting": "[2]; 50 μM, Rat 1 Plate 2", "result": "5.4 μg glycoconjugate/mg total protein"}, {"measurement": "Glycoconjugate Secretion", "setting": "[2]; 50 μM, Rat 2", "result": 1.65, "unit": "Fold increase above basal"}, {"measurement": "Glycoconjugate Secretion", "setting": "[2]; 50 μM, Rat 2 Plate 1", "result": "3.3 μg glycoconjugate/mg total protein"}, {"measurement": "Glycoconjugate Secretion", "setting": "[2]; 50 μM, Rat 3", "result": 1.16, "unit": "Fold increase above basal"}, {"measurement": "Glycoconjugate Secretion", "setting": "[2]; 50 μM, Rat 3 Plate 1", "result": "5.7 μg glycoconjugate/mg total protein"}, {"measurement": "Glycoconjugate Secretion", "setting": "[2]; 50 μM, Rat 4", "result": 1.11, "unit": "Fold increase above basal"}, {"measurement": "Glycoconjugate Secretion", "setting": "[2]; 50 μM, Rat 4 Plate 1", "result": "9.5 μg glycoconjugate/mg total protein"}, {"measurement": "Glycoconjugate Secretion, Mean ± sem", "setting": "[2]; 50 μM", "result": "1.33 ± 0.12", "unit": "Fold increase above basal"}, {"measurement": "Glycoconjugate Secretion, Mean ± SD", "setting": "[2]; 50 μM", "result": "6.0 ± 2.6 μg glycoconjugate/mg total protein"}]}]}
